Laboratory results taken from patent US20210100905A1, “APPLICATION OF COMPOUND OR TRADITIONAL CHINESE MEDICINE EXTRACT IN PREPARATION OF NUCLEIC ACID DELIVERY AGENT, AND RELATED PRODUCTS” (INSTITUTE OF BASIC MEDICAL SCIENCES CHINESE ACADEMY OF …, priority 2018, published 2021).

Legend:
[1] = In vivo delivery of lipid nucleic acid mixture by gavage, RT-qPCR in blood and lung; set-up: species or system C57 mice; conditions: FIG. 14, 6 hours, whole blood and lung
Protocol: 1. Preparation of lipid nucleic acid mixture: the mixture of lipid No. 11 or No. 12 with nucleic acid, and the mixture of the lipid combination of No. 1/2/4/9/14/18/19/20/21/22/23/24/25/26/27/28/29/30/32, No. 3/8/10/11/12/13, and No. 6/15/16/17/31 with nucleic acid were prepared by reverse evaporation and boiling method (refer to steps 2.1-2.2).
2. Gavage were performed on 6-8 weeks old male C57 mice: 200 μl/aminal, grouped as follows:
3. Sample collection: 6 hours after gavage, mouse whole blood (500 μl) and lung (110 mg) were collected by 1.5 mL TRIzol-LS or 3 mL TRIzol, respectively, homogenized and then frozen under −80° C. for storage.
4. […]

MRC-5 cells = assay: Western blot of fibronectin/α-SMA after lipid-mediated delivery of anti-fibrotic HJT-sRNA, TGF-β1 stimulation; type: cell-based; conditions: FIG. 102; nucleic acid 400 nM; TGF-β1 3 ng/mL, 72 hours
Protocol: (§1) 3.3 Western blot detection of protein expression levels 3.3.1 MRC-5 cell (pulmonary embryonic fibroblast), and A549 cell (human lung adenocarcinoma cell) were cultured to logarithmic growth phase, and then plated into 12-well plates at a cell density of 6×10^5/1 mL medium/well; MRC-5 cells were cultured in Eagle's MEM medium (MEM, Gibco); A549 cells were cultured in Ham's F-12 medium (HyClone); followed by incubation overnight at 37° C., and the follow-up experiments were performed after the cells were attached to the walls.
(§2) 4) Lipid nucleic acid mixture: the mixture of lipid and nucleic acid prepared from the step 2 were added into cells and mixed, and the final concentration of nucleic acid was 400 nM.
(§3) 3.3.3 After 24 hours of treatment, the cells were stimulated with the stimulant (1 μg/mL poly (I:C) (P1530, Sigma-Aldrich) as double-stranded RNA viruses mimetics) or 3 ng/mL transforming growth factor TGF(31 (Pepro Tech)). […]

A549 cells = assay: Western blot of knockdown protein after lipid-mediated siRNA delivery; type: cell-based, human; conditions: FIG. 82; reverse evaporation method; LAMP2, XPN2, Ssu72, CPSF4 or β-actin siRNA 400 nM
Protocol: as §1, §2, §3

[2] = In vivo intragastric delivery of small RNA with lipid No. 41, samples after 6 hours; set-up: species or system mice; conditions: each small RNA 1 nmol/animal
Protocol: [Experimental method] 6-8 weeks old mice, 22-24 g, were raised in SPF room of the Animal Center of the Institute of Basic Medical Sciences of Chinese Academy of Medical Sciences. The mice were fasted for 12 hours before intragastric administration. The mice were randomly divided into 3 groups: (1) control group, 400 μl DEPC-treated water, intragastric administration; (2) free uptake group, small RNA (PGY-sRNA-26, PGY-sRNA-32 and PGY-sRNA-23), each small RNA 1 nmol/animal, dissolved in 400 μl DEPC-treated water, intragastric administration; (3) lipid No. 41 group: a mixture of small RNA (PGY-sRNA-26 and PGY-sRNA-32) and lipid No. 41 prepared by heating method was intragastrically administered, each small RNA 1 nmol/animal, lipid No. 41 10 μl/animal, dissolved in 400 μl DEPC-treated water. All tissue and organ samples were collected after 6 hours of intragastric administration. All small RNAs were single-stranded RNA modified by 3p- terminal 2-O-methylation.

SMILES: CCCCC/C=C\C/C=C\CCCCCCCC(=O)O[C@H](COC(=O)CCCCCCCCCCCCCCCCC)COP(=O)([O-])OCC[N+](C)(C)C [No. 11, trimethyl(2-{[(2R)-2-[(9Z, 12Z)-octadeca-9,12-dienoyloxy]-3-(octadecanoyloxy)propyl-phosphonato]oxy}ethyl) azanium]
- entry of HJT-sRNA-m7 into blood and lung [1]: could promote entry of small fragments of nucleic acids into the blood and lung

SMILES: CCCCC/C=C\C/C=C\CCCCCCCC(=O)O[C@H](COC(=O)CCCCCCCCCCCCCCC)COP(=O)([O-])OCC[N+](C)(C)C [No. 12, (2-{[(2R)-3-(hexadecanoyloxy)-2-[(9Z,12Z)-octadeca-9,12-dienoyloxy]propylphosphonato]oxy}ethyl) trimethylazanium]
- entry of HJT-sRNA-m7 into blood and lung [1]: could promote entry of small fragments of nucleic acids into the blood and lung

SMILES: CCCCCCCC/C=C\CCCCCCCCCCCC(=O)O[C@H](COC(=O)CCCCCCCCCCCCCCC)COP(=O)(O)OCCN [No. 40, (2-aminoethoxy) [(2R)-2-[(13Z)-docos-13-enoyloxy]-3-(hexadecanoyloxy)propoxy] phosphinic acid]
- fibronectin protein expression after delivery of double-stranded HJT-sRNA-m7 (Western blot) (MRC-5 cells): mediated anti-fibrotic double-stranded RNA HJT-sRNA-m7 entry into MRC-5 cells to down-regulate fibronectin protein expression

SMILES: CCCCCCCCCCCCCCCCCCC[C@@H](O)[C@@H](N)CO [No. 41, Sphinganine (d22:0)]
- protein knockdown effect of delivered siRNA vs RNAiMAX (Western blot) (A549 cells): significantly higher than the inhibitory effect of HJT-sRNA-m7 mediated by RNAiMAX
- entry of small RNA into the blood ([2]; FIG. 108, lipid 10 μl/animal): could promote the entry of small RNA into the blood, protecting it from degradation in the blood
- entry of small RNA into the stomach cells ([2]; FIG. 109, lipid 10 μl/animal): could promote the entry of small RNA into the stomach cells, protecting it from degradation in the stomach
- entry of small RNA into small intestinal cells ([2]; FIG. 110, lipid 10 μl/animal): could promote the entry of small RNA into small intestinal cells, protecting it from degradation in the small intestine
- entry of small RNA into the liver ([2]; FIG. 111, lipid 10 μl/animal): could promote the entry of small RNA into the liver, protecting it from degradation in the liver
